Here are results for two molecules from patent US20040081712A1, “Substance for treatment of non-insulin dependent diabetes mellitus, hypertension and/or the metabolic syndrome” (priority 2001, published 2004).

“Also recorded” adds a separate entry of the source.

For one data set, the system named is isolated mouse islets. Description: insulin secretion from isolated mouse islets. The conditions noted are these: for glucose-stimulated insulin secretion: 16.7 mmol/l, 10^−9-10^−3 mol/l; for maximal stimulatory dose: NMRI mouse islets. In kind it is cell-based. Here is the method: Islet from 6-10 NMRI mice were isolated and incubated in the presence of 16.7 mmol/l and 10^−9-10^−3 mol/l stevioside or 10^−9-10^−3 mol/l steviol. The results of these tests are illustrated in FIGS. 4a and 4b where each column represents mean±SEM from 24 incubations of single islets. Black bars in FIG. 4a indicate that stevioside is present and hatched bars indicate that stevioside is absent. Grey bars in FIG. 4b indicate that steviol is present and hatched bars indicate that steviol is absent. The influence of the maximal stimulatory doses of 10^−3 mol/l stevioside and 10^−6 mol/l steviol was studied in NMRI mouse islets over a range between 0 and 16.7 mmol/l glucose. […] Black bars in FIG. 7a indicate that stevioside is present and hatched bars indicate that stevioside is absent. Grey bars in FIG. 7b indicate that steviol is present and hatched bars indicate that steviol is absent.

Data set [1] relates to rats. Description: intravenous administration to rats. The conditions noted are these: rat, in vivo.
Data set [2] relates to Salmonella typhimurium strains. The conditions noted are these: cited from earlier work.
The conditions of data set [3]: another study; cited from earlier work.
A further data set concerns mice. The conditions noted are these: mouse, in vivo; cited from earlier work.
Data set [4] concerns rats. The conditions noted are these: rat, in vivo; cited from earlier work.
Data set [5] has as its system hamsters. The conditions noted are these: cited from earlier work.
For data set [6], the system named is GK rats. Description: i.v. glucose tolerance test in GK rats. It counts as in vivo, rat. How it is done:
In the following examples, the type II diabetic Goto-Kakizaki (GK) rats originated from Takeda Chemical Ind., Tokyo, Japan and were bred locally.
As examples of the effects of a compound including the chemical formulas II, stevioside was tested on normal Wistar rats and on GK rats. 2.0 g glucose/kg body weight and 0.2 g stevioside/kg body weight were dissolved in 0.9% saline and infused intravenously. The plasma glucose and insulin levels were measured over a period of 2 hours.
The results are shown in FIGS. 2a, 2b, 3a and 3b, were the O-O series (n=6 for Wistar and n=14 for GK) illustrate glucose infused alone and the {circle over (2)}-{circle over (2)} series (n=6 for Wistar and n=12 for GK) illustrate the combined glucose and stevioside infusion. Data are given as mean±SEM.
During a glucose tolerance test, an intravenous bolus of stevioside of 0.2 g/kg body weight was injected in GK rats (the {circle over (2)}-{circle over (2)} serie (n=6)). GK rats receiving 0.9% saline intravenously served as controls (the O-O serie (n=6)). Glucose 2.0 g/kg body weight was administered as a bolus at timepoint 0 min. The plasma glucagon responses are shown as mean±SEM in FIGS. 5a (control) and 5b (GK). The plasma glucagon was suppressed in the stevioside treated GK rat.

For data set [7], the system named is GK rats. Description: blood pressure during 6 weeks treatment of GK rats. As to conditions: 0.025 g/kg body weight/24 h in drinking water. It counts as in vivo, rat. How it is done:
GK rats were treated with stevioside 0.025 g/kg body weight/24 h for 6 weeks. Stevioside was administered in the drinking water. GK rats receiving drinking water with 0.111 g D-glucose/kg body weight/24 h served as controls. Systolic (FIG. 6a, control: O-O series, stevioside-treated: {circle over (2)}-{circle over (2)} series) and diastolic (FIG. 6b, control: O-O series, stevioside-treated: {circle over (2)}-{circle over (2)} series) blood pressures were measured on the tail.

For data set [8], the system named is type II diabetic patients. Description: acute paired cross-over test meal study. In kind it is in vivo, human. The conditions noted are these: 1 g orally with standard meal. The source says: Twelve type II diabetic patients (4 female/8 males) with a mean age of 65.8±1.6 years, a diabetes duration of 6.0±1.3 years, a mean body mass index of 28.5±1.0, and a mean glycated hemoglobin HbAlc of 7.4+0.4 percent were included in the study. The experiment was an acute, paired, cross-over study in which two test meals were served during the experiments (A: Standard meal supplemented with 1 g of stevioside given orally; B: Standard meal given together with 1 g of gelatine (placebo) given orally. The total energy content of the test meals was 1725 kJ (protein 16 E %, fat 30 E %, carbohydrate 54 E %). Blood samples were drawn from an antecubital vein 30 minutes before and 240 minutes after ingestion of the test meal. The arterial blood pressure was continuously monitored during the experiment. Students paired t-test was used for comparing the effects of stevioside with placebo on the parameters measured. Data are given as mean±SEM.

Another data set concerns Goto-Kakizaki rats. Description: four-week test diets with glucose tolerance test in Goto-Kakizaki rats. In kind it is in vivo, rat. How it is done: In the following example is the term “Soy” defined as a composition comprising 65 weight-% soy protein, at least 0.2 weight-% isoflavones and 18 weight-% soy dietary fibres, mostly cotyledon fibres. “Altromin” is a standard carbohydrate rich laboratory animal diet.” Four test diets, A, B, C and D as defined below, were administered for four weeks to four groups of adult rats. A: Altromin; n=12 (Alt). B: Altromin supplemented with stevioside; n=12; (Alt+Ste). C: 80% Soy plus 20% Altromin; n=12; (Soy). D: 80% Soy plus 20% Altromin plus stevioside; n=12; (Soy+Ste) Each experimental group consisted of twelve female Goto-Kakizaki with an age of 9 weeks. The rats received the stevioside (0.025 g/kg body weight/day) with the drinking water. By the end of the third experimental week intra-arterial catheters were implanted into the carotid artery thereby enabling blood sampling during a 240 minutes glucose-tolerance test which was carried out by the end of the experiment at week 4. Blood samples were drawn after a bolus infusion of 2.0 g D-glucose/kg body weight. Plasma concentrations of glucose, insulin, and glucagon were measured during the glucose tolerance test. Immediately before the glucose tolerance test fasting levels of triglycerides and cholesterol were determined. Concomitantly, the systolic blood pressure was measured using a tail cuff. (Plasma glucose was measured using MPR 3, 166 391, Glucose/GOD-PAP Method from Boehringer Mannheim) (Plasma insulin was measured using Sensitive Rat Insulin RIA, Cat # SRI-13K from Linco) (Plasma glucagon was measured using Glucagon RIA, Cat # GL-32K from Linco) (Blood pressure was measured using TSE Non-Invasive Blood Pressure Monitoring System from Technical Scientific Equipment GmbH) (Plasma cholesterol was measured GOD-PAP from Roche and triglycerides was measured using GHOD-PAP from Roche)

The nature of data set [9]: stevioside infusion at normal blood glucose. It counts as in vivo. As to conditions: bolus or constant intravenous infusion.
For data set [10] the following is noted: rats; cited from earlier work.
For data set [11] the following is noted: isolated perfused rat liver; cited from earlier work.
The subject of another data set is F344 rats. As to conditions: cited from earlier work.
For data set [12], the system named is hamsters. As to conditions: doses as high as 2.5 g/kg body weight/day; cited from earlier work.
Data set [13] has as its system isolated normal pancreatic rat islets. The conditions noted are these: 7 mmol/l D-glucose, 1,0 mmol/l; cited from earlier work.
In data set [14] the test system is spontaneously hypertensive rats. The conditions noted are these: intravenously 200 mg/kg; cited from earlier work.

Turning to `C=C1C[C@@]23CC[C@H]4[C@@](C)(CCC[C@@]4(C)C(=O)O)[C@@H]2CC[C@]1(O)C3` [steviol], in the data set on isolated mouse islets, the “stimulation of insulin secretion, steviol compared with stevioside” value was “stimulate the insulin secretion to a greater extent”; the glucose-stimulated insulin secretion result is “capable of potentiating glucose-stimulated insulin secretion”; the maximal stimulatory dose is listed as 10^−6 mol/l. The “effect when administered intravenously to rats” value in the data set with rats [1] is “anti-hyperglycemic, glucagonostatic and insulinotropic effect”. Moreover, the mutagenic effect entry in data set [2] is listed as “no mutagenic effect”. The mutagenicity result in data set [3] is listed as “dose-related positive responses”. For the same molecule, the LD50 result in the data set on mice is “higher than 15 g/kg body weight”. Further, the LD50 entry in the data set with rats [4] was “higher than 15 g/kg body weight”. Further, in the data set with hamsters [5] (hamster, in vivo), the LD50 is 5-6 g/kg body weight. For the same molecule, the “pathology accompanying lethal dose” value with hamsters [5] (hamsters) is “degeneration of the proximal tubular cells”.

Regarding `C=C1C[C@@]23CC[C@H]4[C@@](C)(CCC[C@@]4(C)C(=O)O[C@@H]4O[C@H](CO)[C@@H](O)[C@H](O)[C@H]4O)[C@@H]2CC[C@]1(O[C@@H]1O[C@H](CO)[C@@H](O)[C@H](O)[C@H]1O[C@@H]1O[C@H](CO)[C@@H](O)[C@H](O)[C@H]1O)C3` [stevioside], in the data set on GK rats [6] (2.0 g glucose/kg + 0.2 g stevioside/kg i.v.), the “time after which significant decrease of plasma glucose was observed” value was found to be 30 min. Moreover, the plasma glucose response entry in the data set on GK rats [6] (2.0 g glucose/kg + 0.2 g stevioside/kg i.v., 2 hours) is reported as “inhibited blood glucose responses; also recorded: diminished glucose response”. The plasma insulin response result with GK rats [6] (2.0 g glucose/kg + 0.2 g stevioside/kg i.v., compared to the Wistar rat) was “pronounced increase in the insulin response”. In the data set with GK rats [6] (i.v. bolus 0.2 g/kg, glucose 2.0 g/kg), the plasma glucagon response result is listed as “suppressed”. In the data set with isolated mouse islets, the glucose-stimulated insulin secretion result is recorded as “capable of potentiating glucose-stimulated insulin secretion” and the maximal stimulatory dose is listed as 10^−3 mol/l. The “time of treatment after which decrease in blood pressure was detectable” value with GK rats [7] is reported as 2 weeks. Besides, the “decrease in the blood pressure” value in the data set on GK rats [7] (6 weeks, systolic and diastolic, tail) is listed as 10-15%. Also, in [8], the “absolute IAUC postprandial blood glucose” value is 522±64 mmol/l x 240 min, the “insulin response (IAUC)” value was “the difference did not reach statistical significance”, the postprandial glucagon levels is 281±33 and the “reduction of postprandial blood glucose response compared to placebo” value stood at 18±5%. The “area under the plasma-glucagon response curve, in words” value in the data set on Goto-Kakizaki rats (both Altromin and soy groups) was “significantly reduced”. Also, in the data set with Goto-Kakizaki rats (glucose tolerance test), the “area under the glucose response curve, in words” value was “reduced the incremental area (IAUC) under the glucose response curve”; the “first phase insulin response, in words” value is “significantly improved the first phase insulin responses”; the “insulin response curve 0 to 240 minutes, in words” value is “did not alter the insulin responses”. The “fasting triglyceride levels, in words” value in the data set on Goto-Kakizaki rats (rat, in vivo) is “significant suppression of the fasting triglyceride levels”. In addition, the “suppression of the systolic blood pressure (Δ)” value with Goto-Kakizaki rats (stevioside in combination with Altromin) is −28 mmHg. Also, the “suppression of the systolic blood pressure (Δ)” value in the data set with Goto-Kakizaki rats (stevioside in combination with soy) was −21 mmHg. Besides, in data set [9], the hypoglycemia entry is “did not cause any hypoglycemia”. The “effect when administered intravenously to rats” value with rats [1] is “anti-hyperglycemic, glucagonostatic and insulinotropic effect”. The route of excretion entry in data set [10] is “excreted by the urine”. The metabolism result in [11] is given as “not metabolised”. In addition, the mutagenic effect result in data set [2] is listed as “no mutagenic effect”. Further, the mutagenicity entry in data set [3] was “not mutagenic”. Moreover, in the data set with F344 rats, the carcinogenicity result is “not carcinogenic”. Further, in the data set on hamsters [12], the “effect on growth or reproduction” value is on record as “no effect on growth or reproduction”. The insulin output result in data set [13] is reported as “significant increase in insulin output”. Besides, the “fall in the systolic blood pressure” value in data set [14] is recorded as “only small”.
